Assay results published in article PMC10084758, “Crystal Structure and Biochemical Analysis of a Cytochrome P450 Steroid Hydroxylase (BaCYP106A6) from Bacillus Species” (Journal of Microbiology and Biotechnology, 2022).

Target: T1, BaCYP106A6 (Bacillus sp. (in: firmicutes), UniProt Z9J180VW61)
T1 construct: His-tagged, pET28a(+), E. coli C41(DE3); Co2+ resin; monomer; N-terminus MLKEVI and C-terminus NVYK deduced from printed primers; heme-ligating Cys356; unique Arg295
T1 sequence (Z9J180VW61 1-410): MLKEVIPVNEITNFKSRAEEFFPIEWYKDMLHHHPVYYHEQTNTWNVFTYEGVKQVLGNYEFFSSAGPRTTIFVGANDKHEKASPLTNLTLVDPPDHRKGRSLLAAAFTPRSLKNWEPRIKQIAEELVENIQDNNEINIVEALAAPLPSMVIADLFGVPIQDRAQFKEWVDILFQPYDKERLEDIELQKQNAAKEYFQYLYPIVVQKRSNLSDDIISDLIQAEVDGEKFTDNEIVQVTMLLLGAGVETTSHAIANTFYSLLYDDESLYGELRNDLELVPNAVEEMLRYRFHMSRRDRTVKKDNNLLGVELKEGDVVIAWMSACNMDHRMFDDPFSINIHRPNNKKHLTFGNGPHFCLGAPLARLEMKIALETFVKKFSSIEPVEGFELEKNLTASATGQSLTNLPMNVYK
Experiment: UV-visible type I difference spectral titration
Assay type: binding

Compound	Kd
C[C@]12CCC(=O)C=C1CC[C@@H]1[C@@H]2CC[C@]2(C)C(=O)CC[C@@H]12 [androstenedione]	36.6 µM
CC(=O)[C@H]1CC[C@H]2[C@@H]3CCC4=CC(=O)CC[C@]4(C)[C@H]3CC[C@]12C [progesterone]	38.4 µM
